Data reported in US11352350B2, “IRAK degraders and uses thereof” (Kymera Therapeutics, Inc., priority 2018, dated 2022).
Like-named read-outs stand apart in the source and are kept apart here.

Columns and labels:
IRAK4 = IRAK4 (Homo sapiens (Human), UniProt Q9NWZ3); assay: IRAK4 MSD degradation in OCI-LY10; assay type: cell-based
Method in brief: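 Remaining IRAK4 quantified by electrochemiluminescent MSD sandwich assay with two anti-IRAK4 antibodies. Compounds were dosed as 8 concentrations in 1:3 steps from a 1 to 10 μM final top on OCI-LY10 cells, incubated 4 to 24 h at 37° C. under 5% CO2. DC50 fitted with a three-parameter logistic curve.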

OCI-LY10 = assay: CTG Cell Viability Assay - OCI-LY10; assay type: cell-based, human; settings: Homo sapiens, OCI-LY10, 4 days, read-out: CTG Cell Viability Assay - OCI-LY10: Average external-IC50
Method in brief: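 Viability read by CellTiter-Glo luminescence after 4 days at 37° C under 5% CO2 with compound (top 10 μM final, 1:3 steps, 9 doses, DMSO 0.2%). Three-parameter logistic fit gave IC50.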

[1] = OCI-LY10, 4 hrs, MSD, read-out: IRAK4 MSD degradation in OCI-LY10 at 4 hrs: Average external-Abs DC50
[2] = OCI-LY10, 24 hrs, MSD, read-out: IRAK4 MSD degradation in OCI-LY10 at 24 hrs: Average external-Abs DC50

Chain of IRAK4 (Q9NWZ3 whole entry): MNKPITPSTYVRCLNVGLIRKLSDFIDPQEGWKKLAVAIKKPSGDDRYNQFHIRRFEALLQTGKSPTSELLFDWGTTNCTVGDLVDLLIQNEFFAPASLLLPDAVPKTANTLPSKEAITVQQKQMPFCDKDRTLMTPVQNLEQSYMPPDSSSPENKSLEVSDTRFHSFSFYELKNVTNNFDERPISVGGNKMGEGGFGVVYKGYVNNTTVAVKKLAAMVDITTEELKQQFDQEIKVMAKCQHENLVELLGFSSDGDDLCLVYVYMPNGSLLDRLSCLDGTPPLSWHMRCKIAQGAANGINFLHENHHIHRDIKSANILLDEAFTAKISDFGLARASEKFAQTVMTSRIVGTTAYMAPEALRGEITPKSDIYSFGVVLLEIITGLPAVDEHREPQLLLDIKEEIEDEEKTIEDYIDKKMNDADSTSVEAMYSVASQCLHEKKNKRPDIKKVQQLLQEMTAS

Structure (SMILES)	DC50 (IRAK4; [1]) [nM]	IC50 (OCI-LY10; OCI-Ly10, 96 h) [nM]	DC50 (IRAK4; [2]) [nM]	IC50 (OCI-LY10; 96 h) [nM]	DC50 (IRAK4; OCI-LY10, 4 hrs, read-out: IRAK4 MSD degradation in OCI-LY10 at 4 hrs: DC50) [nM]	DC50 (IRAK4; OCI-LY10, 24 hrs, read-out: IRAK4 MSD degradation in OCI-LY10 at 24 hrs: DC50) [nM]
Cn1c(=O)n(C2CCC(=O)NC2=O)c2cccc(CN3CCC(CCN4CCC(n5cc(NC(=O)c6cnn7ccc(N8CCOCC8)nc67)c(C(F)F)n5)CC4)CC3)c21 (stereo not drawn) [I-177]	< 10	100 to 500	–	–	–	–
CN1C(=O)CCC(n2c(=O)n(C)c3c(CN4CCC(N(C)C[C@H]5CC[C@H](n6cc(NC(=O)c7coc(-c8ccnc(NCC9CC9)c8)n7)c(C(F)F)n6)CC5)CC4)cccc32)C1=O (stereo partly drawn) [I-247]	100 to 1000	> 1000	–	–	–	–
Cn1c(=O)n(C2CCC(=O)NC2=O)c2cccc(CCCOCCOCCNC(=O)[C@H]3CC[C@@H](n4cc(NC(=O)c5coc(-c6ccnc(NCC7CC7)c6)n5)c(C(F)F)n4)CC3)c21 (stereo partly drawn) [I-15]	10 to 100	> 1000	10 to 100	–	–	–
O=C1CCC(n2c3ccccc3c3c(CCCOC4CCN(C[C@H]5CC[C@H](n6cc(NC(=O)c7cnn8ccc(N9CCOCC9)nc78)c(C(F)F)n6)CC5)CC4)ccnc32)C(=O)N1 (stereo partly drawn) [I-192]	10 to 100	> 1000	–	–	–	–
CN1C(=O)C(C2CCC(=O)NC2=O)c2cccc(CCCOC3CCN(C[C@H]4CC[C@H](n5cc(NC(=O)c6cnn7ccc(N8CC9(COC9)C8)nc67)c(C(F)F)n5)CC4)CC3)c21 (stereo partly drawn) [I-287]	< 10	> 1000	–	–	–	–
CC[C@@H]1[C@H](F)C(=O)N[C@@H]1COc1ccc(-c2ncn(CN(C)CCCOCCCc3cccc4c3n(C)c(=O)n4C3CCC(=O)NC3=O)n2)c2cc(C(N)=O)c(OC)cc12 (stereo partly drawn) [I-188]	100 to 1000	> 1000	100 to 1000	–	–	–
Cn1c(=O)n(C2CCC(=O)NC2=O)c2cccc(CCCOC3CCN(C[C@H]4CC[C@H](n5cc(NC(=O)c6cnn7ccc(N[C@@H]8CCCC(F)(F)[C@@H]8N)nc67)c(C(F)F)n5)CC4)CC3)c21 (stereo partly drawn) [I-300]	100 to 1000	500 to 1000	–	–	–	–
Cn1c(=O)n(C2CCC(=O)NC2=O)c2cccc(CCCOCC3CCN(C[C@H]4CC[C@H](n5cc(NC(=O)c6coc(-c7ccnc(NCC8CC8)c7)n6)c(C(F)F)n5)CC4)CC3)c21 (stereo partly drawn) [I-120]	< 10	> 1000	–	–	–	–
CC[C@@H]1[C@H](F)C(=O)N[C@@H]1COc1ncc(C#C[C@H]2CC[C@H](CN(C)CCCOCCCN)CC2)c2cc(C(N)=O)c(OC)cc12 [I-316, 4-[2-[4-[[3-(3-Aminopropoxy)propyl-methyl-amino]methyl]cyclohexyl]ethynyl]-1-[[(2S, 3S, 4S)-3-ethyl-4-fluoro-5-oxo-pyrrolidin-2-yl]methoxy]-7-methoxy-isoquinoline-6-carboxamide]	> 1000	–	> 1000	> 1000	–	–
O=C1CCC(N2C(=O)c3cccc(NCCCOC[C@@H]4CN(C[C@H]5CC[C@H](n6cc(NC(=O)c7cnn8ccc(N9C[C@H]%10C[C@@H]9CO%10)nc78)c(C(F)F)n6)CC5)CCO4)c3C2=O)C(=O)N1 (stereo partly drawn) [I-352]	> 1000	500 to 1000	10 to 100	–	–	–
CC([C@H]1CC[C@H](n2cc(NC(=O)c3coc(-c4ccnc(NCC5CC5)c4)n3)c(C(F)F)n2)CC1)N1CCC(OCCCc2cccc3c2n(C)c(=O)n3C2CCC(=O)NC2=O)CC1 (stereo partly drawn) [I-301, 2-[2-(Cyclopropylmethylamino)-4-pyridyl]-N-[3-(difluoromethyl)-1-[4-[1-[4-[3-[1-(2,6-dioxo-3-piperidyl)-3-methyl-2-oxo-benzimidazol-4-yl]propoxy]-1-piperidyl]ethyl]cyclohexyl]pyrazol-4-yl] oxazole-4-carboxamide]	10 to 100	< 50	–	–	–	–
CN(CCCN1CCN(c2cccc3c2C(=O)N(C2CCC(=O)NC2=O)C3=O)CC1)C[C@H]1CC[C@H](n2cc(NC(=O)c3cnn4ccc(N5CCOCC5)nc34)c(C(F)F)n2)CC1 (stereo partly drawn) [I-225]	10 to 100	> 1000	–	–	–	–
CN(C(=O)c1cnn2ccc(N3CCOCC3)nc12)c1cn([C@H]2CC[C@H](CN3CCN(Cc4ccc(COc5cccc6c5CN(C5CCC(=O)NC5=O)C6=O)cc4)CC3)CC2)nc1C(F)F (stereo partly drawn) [I-503]	–	< 50	–	–	> 1000	> 1000
Cc1ccc(-n2nc(C3CCN(CCCCCOCCCc4ccc5c(c4)n(C)c(=O)n5C4CCC(=O)NC4=O)CC3)cc2NC(=O)c2cnn3cccnc23)nc1 (stereo not drawn) [I-273]	> 1000	> 1000	> 1000	–	–	–
Cn1c(=O)n(C2CCC(=O)NC2=O)c2cccc(CCCOC3CCN([C@H]4CC[C@H](Nc5ncnc6ccc(C#N)cc56)CC4)CC3)c21 (stereo partly drawn) [I-304, 4-[[4-[4-[3-[1-(2,6-dioxo-3-piperidyl)-3-methyl-2-oxo-benzimidazol-4-yl]propoxy]-1-piperidyl]cyclohexyl]amino] quinazoline-6-carbonitrile]	> 1000	> 1000	> 1000	–	–	–
CN(CCCOCCCc1cccc2c1n(C)c(=O)n2[C@H]1CCC(=O)NC1=O)C[C@H]1CC[C@H](n2cc(NC(=O)c3coc(-c4ccnc(NCC5CC5)c4)n3)c(C(F)F)n2)CC1 (single isomer, unassigned) [I-306]	< 10	> 1000	–	–	–	–
